Reference: PubChem BioAssay (NCI)
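Cultured in 96-well plates, cells were exposed to test compound for 48 hours across five concentrations. The concentration for full growth arrest is given as TGI.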

How the values were obtained:
Experiment in all cases: NCI-60 cell line screen, 48 h
[1] = test system: 786-0 renal
[2] = test system: A498 renal
[3] = test system: A549 NSCLC
[4] = test system: ACHN renal
[5] = test system: BT-549 breast
[6] = test system: CAKI-1 renal
[7] = test system: CCRF-CEM leukemia
[8] = test system: COLO 205 colon
[9] = test system: DU-145 prostate
[10] = test system: EKVX NSCLC
[11] = test system: HCC-2998 colon
[12] = test system: HCT-116 colon
[13] = test system: HCT-15 colon
[14] = test system: HL-60(TB) leukemia
[15] = test system: HOP-62 NSCLC
[16] = test system: HOP-92 NSCLC
[17] = test system: HS 578T breast
[18] = test system: HT29 colon
[19] = test system: IGROV1 ovarian
[20] = test system: K-562 leukemia
[21] = test system: KM12 colon
[22] = test system: LOX IMVI melanoma
[23] = test system: M14 melanoma
[24] = test system: MALME-3M melanoma
[25] = test system: MCF7 breast
[26] = test system: MDA-MB-231 breast
[27] = test system: MDA-MB-435
[28] = test system: MDA-N
[29] = test system: MOLT-4 leukemia
[30] = test system: NCI-H226 lung
[31] = test system: NCI-H23 lung
[32] = test system: NCI-H460 lung
[33] = test system: NCI-H522 lung
[34] = test system: NCI/ADR-RES ovarian
[35] = test system: OVCAR-4 ovarian
[36] = test system: OVCAR-5 ovarian
[37] = test system: OVCAR-8 ovarian
[38] = test system: PC-3 prostate
[39] = test system: RPMI-8226 leukemia
[40] = test system: RXF 393 renal
[41] = test system: SF-295 CNS
[42] = test system: SF-539 CNS
[43] = test system: SK-MEL-2 melanoma
[44] = test system: SK-MEL-28 melanoma
[45] = test system: SK-MEL-5 melanoma
[46] = test system: SK-OV-3 ovarian
[47] = test system: SN12C renal
[48] = test system: SNB-19 CNS
[49] = test system: SNB-75 CNS
[50] = test system: SR leukemia
[51] = test system: SW-620 colon
[52] = test system: T-47D breast
[53] = test system: TK-10 renal
[54] = test system: U251 CNS
[55] = test system: UACC-257 melanoma
[56] = test system: UACC-62 melanoma
[57] = test system: UO-31 renal

`O=[N+]([O-])c1ccc(/C(=C\c2ccccc2)Cn2ccnc2)cc1` was tested, and the TGI [1] was over 100 µM, the TGI [2] was 72 µM and the TGI [3] was over 100 µM. The TGI [4] was over 100 µM, the TGI [5] was 87.8 µM and the TGI [6] was 45.6 µM. The TGI [7] was over 100 µM, the TGI [8] was 30 µM and the TGI [9] was over 100 µM. The TGI [10] was over 100 µM, the TGI [11] was over 100 µM and the TGI [12] was over 100 µM. It also gave a TGI [13] of over 100 µM, a TGI [14] of 46.4 µM and a TGI [15] of over 100 µM. It also gave a TGI [16] of 79.9 µM, a TGI [17] of 69.9 µM and a TGI [18] of 67.1 µM. The TGI [19] was over 100 µM, the TGI [20] was 69.2 µM and the TGI [21] was over 100 µM. It also gave a TGI [22] of 54.1 µM, a TGI [23] of over 100 µM and a TGI [24] of over 100 µM. For the same compound, the TGI [25] was over 100 µM, the TGI [26] was 87.8 µM and the TGI [27] was over 100 µM. It also gave a TGI [28] of 75.1 µM, a TGI [29] of over 100 µM and a TGI [30] of over 100 µM. The TGI [31] was over 100 µM, the TGI [32] was over 100 µM and the TGI [33] was 57.8 µM. It also gave a TGI [34] of 66 µM, a TGI [35] of over 100 µM and a TGI [36] of over 100 µM. It also gave a TGI [37] of over 100 µM, a TGI [38] of 95.7 µM and a TGI [39] of over 100 µM. It also gave a TGI [40] of over 100 µM, a TGI [41] of over 100 µM and a TGI [42] of over 100 µM. For the same compound, the TGI [43] was 61.1 µM, the TGI [44] was over 100 µM and the TGI [45] was 94.4 µM. It also gave a TGI [46] of over 100 µM, a TGI [47] of over 100 µM and a TGI [48] of over 100 µM. It also gave a TGI [49] of 86.4 µM, a TGI [50] of over 100 µM and a TGI [51] of over 100 µM. The TGI [52] was over 100 µM, the TGI [53] was over 100 µM and the TGI [54] was over 100 µM. It also gave a TGI [55] of over 100 µM, a TGI [56] of over 100 µM and a TGI [57] of over 100 µM.
